Reference: ChEMBL document CHEMBL1201862, “PubChem BioAssay data set” (2004)
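Each compound was tested at five concentrations against cells in 96-well plates for 48 hours. The concentration for 50% growth inhibition is given as GI50.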 Activity calls are given as the source filed them. Cut-off read from the data, not from the text of the source: active = GI50 up to about 1.1 µM and inactive = higher.

Columns and labels:
Experiment in all cases: NCI anticancer screen, dose series, 48 h
DLD-1 = test system: DLD-1
EKVX = test system: EKVX
HOP-92 = test system: HOP-92
HT-29 = test system: HT-29
Hs-578T = test system: Hs-578T
IGROV-1 = test system: IGROV-1
KM-20L2 = test system: KM-20L2
M14 = test system: M14
M19-MEL = test system: M19-MEL
NCI-H226 = test system: NCI-H226
NCI-H23 = test system: NCI-H23
NCI-H460 = test system: NCI-H460
OVCAR-4 = test system: OVCAR-4
PC-3 = test system: PC-3
SF-295 = test system: SF-295
SF-539 = test system: SF-539
SNB-19 = test system: SNB-19
SNB-75 = test system: SNB-75
SR = test system: SR
UACC-62 = test system: UACC-62

COc1cc(/C=C\c2ccc(SC)cc2)cc(OC)c1OC
GI50 (DLD-1): 40.9 nM (active) | GI50 (EKVX): 6970 nM (inactive) | GI50 (HOP-92): 498 nM (active) | GI50 (HT-29): < 13.7 nM (active) | GI50 (Hs-578T): 13.2 nM (active) | GI50 (IGROV-1): 63.2 nM (active) | GI50 (KM-20L2): 18.2 nM (active) | GI50 (M14): 18.2 nM (active) | GI50 (M19-MEL): 27.8 nM (active) | GI50 (NCI-H226): 979 nM (active) | GI50 (NCI-H23): 26.8 nM (active) | GI50 (NCI-H460): 17.1 nM (active) | GI50 (OVCAR-4): 10700 nM (inactive) | GI50 (PC-3): < 10 nM (active) | GI50 (SF-295): 11.9 nM (active) | GI50 (SF-539): < 14.5 nM (active) | GI50 (SNB-19): 24.7 nM (active) | GI50 (SNB-75): < 10 nM (active) | GI50 (SR): < 10 nM (active) | GI50 (UACC-62): 22.7 nM (active)
